Data as given in PubChem BioAssay AID292 (DTP/NCI, 2004).
Inconclusive results and toxic doses are left out.

Tested on: B6C3F1 mice, ip Sarcoma M5076, median survival T/C
Test: NCI In Vivo Anticancer Drug Screen. Data for tumor model Sarcoma M5076 (intraperitoneal) in B6C3F1 mice
Conditions: endpoint: median survival time, higher = longer survival
In short: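 Survival measured in treated (T) and vehicle control (C) mice with transplantable tumour; result given as T divided by C.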

[1] = dose: 50.0 mg/kg/injection, schedule: Q04DX004 (ip), vehicle: saline with Tween-80
[2] = dose: 100.0 mg/kg/injection, schedule: Q04DX004 (ip), vehicle: saline with Tween-80
[3] = dose: 200.0 mg/kg/injection, schedule: Q04DX004 (ip), vehicle: saline with Tween-80
[4] = dose: 25.0 mg/kg/injection, schedule: Q04DX004 (ip), vehicle: Klucel (hydroxypropylcellulose) (HPC)
[5] = dose: 50.0 mg/kg/injection, schedule: Q04DX004 (ip), vehicle: Klucel (hydroxypropylcellulose) (HPC)
[6] = dose: 100.0 mg/kg/injection, schedule: Q04DX004 (ip), vehicle: Klucel (hydroxypropylcellulose) (HPC)
[7] = dose: 200.0 mg/kg/injection, schedule: Q04DX004 (ip), vehicle: Klucel (hydroxypropylcellulose) (HPC)
[8] = dose: 400.0 mg/kg/injection, schedule: Q04DX004 (ip), vehicle: Klucel (hydroxypropylcellulose) (HPC)
[9] = dose: 400.0 mg/kg/injection, schedule: Q04DX004 (ip), vehicle: saline with Tween-80
[10] = dose: 37.5 mg/kg/injection, schedule: Q04DX004 (ip), vehicle: saline with Tween-80
[11] = dose: 75.0 mg/kg/injection, schedule: Q04DX004 (ip), vehicle: saline with Tween-80
[12] = dose: 150.0 mg/kg/injection, schedule: Q04DX004 (ip), vehicle: saline with Tween-80
[13] = dose: 300.0 mg/kg/injection, schedule: Q04DX004 (ip), vehicle: saline with Tween-80
[14] = dose: 600.0 mg/kg/injection, schedule: Q04DX004 (ip), vehicle: saline with Tween-80
[15] = dose: 12.5 mg/kg/injection, schedule: Q04DX004 (ip), vehicle: saline with Tween-80
[16] = dose: 25.0 mg/kg/injection, schedule: Q04DX004 (ip), vehicle: saline with Tween-80

SMILES: CC1C(C#N)C(=O)NC(=O)C1C#N (configuration not stated)
- T/C (dose: 50.0 mg/kg/injection, schedule: Q04DX004 (ip), vehicle: saline): 100 % of control
- T/C (dose: 100.0 mg/kg/injection, schedule: Q04DX004 (ip), vehicle: saline): 104 % of control
- T/C (dose: 200.0 mg/kg/injection, schedule: Q04DX004 (ip), vehicle: saline): 97 % of control
- T/C (dose: 400.0 mg/kg/injection, schedule: Q04DX004 (ip), vehicle: saline): 97 % of control
- T/C (dose: 800.0 mg/kg/injection, schedule: Q04DX004 (ip), vehicle: saline): 102 % of control

SMILES: Cn1c(=O)c2nncnc2n(C)c1=O
- T/C [1]: 94 % of control
- T/C [2]: 96 % of control
- T/C [3]: 94 % of control

SMILES: NC(C(=O)O)/C1=C/CCCCCC1 (configuration not stated)
- T/C [4]: 100 % of control
- T/C [5]: 98 % of control
- T/C [6]: 100 % of control
- T/C [7]: 111 % of control
- T/C [8]: 103 % of control

SMILES: ClC1(Cl)Cc2ccccc21
- T/C [1]: 103 % of control
- T/C [2]: 114 % of control
- T/C [3]: 92 % of control
- T/C [9]: 87 % of control

SMILES: Cc1ccc(C)c(NC(=O)C2C(=O)C(=O)N(c3cc(C)ccc3C)C2=O)c1 (configuration not stated)
- T/C [5]: 102 % of control
- T/C [6]: 100 % of control
- T/C [7]: 108 % of control
- T/C [8]: 105 % of control

SMILES: Cc1nc2ccccc2c2nnc(SCC(=O)N(Cc3ccccc3)c3ccccc3)n12
- T/C [4]: 98 % of control
- T/C [5]: 115 % of control
- T/C [6]: 114 % of control
- T/C [7]: 104 % of control
- T/C [8]: 112 % of control

SMILES: [N-]=[N+]=NCc1cnnn1C1OC(CO)C(O)C1O (configuration not stated)
- T/C (dose: 37.5 mg/kg/injection, schedule: Q04DX004 (ip), vehicle: saline): 104 % of control
- T/C (dose: 75.0 mg/kg/injection, schedule: Q04DX004 (ip), vehicle: saline): 103 % of control
- T/C (dose: 150.0 mg/kg/injection, schedule: Q04DX004 (ip), vehicle: saline): 104 % of control
- T/C (dose: 300.0 mg/kg/injection, schedule: Q04DX004 (ip), vehicle: saline): 107 % of control
- T/C (dose: 600.0 mg/kg/injection, schedule: Q04DX004 (ip), vehicle: saline): 103 % of control

SMILES: CC[n+]1c([S-])nn(C)c1-c1cnccn1
- T/C [10]: 103 % of control
- T/C [11]: 107 % of control
- T/C [12]: 96 % of control
- T/C [13]: 112 % of control
- T/C [14]: 95 % of control

SMILES: O=c1ncccn1[C@@H]1O[C@H](CO)[C@H](O)C1O (some centres not stated)
- T/C (dose: 25.0 mg/kg/injection, schedule: Q01DX009 (ip), vehicle: saline): 99 % of control
- T/C (dose: 50.0 mg/kg/injection, schedule: Q01DX009 (ip), vehicle: saline): 103 % of control
- T/C (dose: 100.0 mg/kg/injection, schedule: Q01DX009 (ip), vehicle: saline): 104 % of control
- T/C (dose: 125.0 mg/kg/injection, schedule: Q04DX004 (ip), vehicle: saline): 92 % of control
- T/C (dose: 200.0 mg/kg/injection, schedule: Q01DX009 (ip), vehicle: saline): 110 % of control
- T/C (dose: 250.0 mg/kg/injection, schedule: Q04DX004 (ip), vehicle: saline): 94 % of control
- T/C (dose: 400.0 mg/kg/injection, schedule: Q01DX009 (ip), vehicle: saline): 97 % of control
- T/C (dose: 500.0 mg/kg/injection, schedule: Q04DX004 (ip), vehicle: saline): 89 % of control
- T/C (dose: 1000.0 mg/kg/injection, schedule: Q04DX004 (ip), vehicle: saline): 92 % of control

SMILES: O=CC(NC(=O)N(CCCl)N=O)C(O)C(O)C(O)CO (configuration not stated)
- T/C (dose: 1.25 mg/kg/injection, schedule: Q04DX005 (ip), vehicle: saline): 319 % of control
- T/C (dose: 2.5 mg/kg/injection, schedule: Q04DX005 (ip), vehicle: saline): 319 % of control
- T/C (dose: 5.0 mg/kg/injection, schedule: Q04DX005 (ip), vehicle: saline): 319 % of control
- T/C (dose: 10.0 mg/kg/injection, schedule: Q04DX005 (ip), vehicle: saline): 319 % of control

SMILES: CCOC(=O)C1=C(C)O/C(=C/c2cccc(Cl)c2)C1=O
- T/C [2]: 99 % of control
- T/C [3]: 100 % of control
- T/C [9]: 93 % of control

SMILES: CC(C)(C)NC(C1=CC(C)(C)c2ccccc2C1=O)c1ccccc1 (configuration not stated)
- T/C [5]: 103 % of control
- T/C [6]: 101 % of control
- T/C [7]: 110 % of control
- T/C [8]: 104 % of control

SMILES: O=C1C2CC=CCC2C(=O)N1SC(Cl)(Cl)Cl (configuration not stated)
- T/C (dose: 3.13 mg/kg/injection, schedule: Q04DX004 (ip), vehicle: saline with Tween-80): 110 % of control
- T/C (dose: 6.25 mg/kg/injection, schedule: Q04DX004 (ip), vehicle: saline with Tween-80): 120 % of control
- T/C [15]: 91 % of control
- T/C [16]: 100 % of control

SMILES: CC1(C)N=C(N)N=C(N)N1c1ccc(CCCCc2ccc(S(=O)(=O)F)cc2Cl)c(Cl)c1
- T/C (dose: 15.0 mg/kg/injection, schedule: Q04DX004 (ip), vehicle: Klucel (hydroxypropylcellulose) (HPC)): 204 % of control
- T/C (dose: 30.0 mg/kg/injection, schedule: Q04DX004 (ip), vehicle: Klucel (hydroxypropylcellulose) (HPC)): 186 % of control
- T/C (dose: 60.0 mg/kg/injection, schedule: Q04DX004 (ip), vehicle: Klucel (hydroxypropylcellulose) (HPC)): 270 % of control
- T/C (dose: 120.0 mg/kg/injection, schedule: Q04DX004 (ip), vehicle: Klucel (hydroxypropylcellulose) (HPC)): 270 % of control
- T/C (dose: 240.0 mg/kg/injection, schedule: Q04DX004 (ip), vehicle: Klucel (hydroxypropylcellulose) (HPC)): 270 % of control

SMILES: CCOc1ccc(-c2nc3ccc(-c4nc5ccc(N6CCN(C)CC6)cc5[nH]4)cc3[nH]2)cc1
- T/C (dose: 3.12 mg/kg/injection, schedule: Q04DX004 (ip), vehicle: saline): 100 % of control
- T/C (dose: 6.25 mg/kg/injection, schedule: Q04DX004 (ip), vehicle: saline): 88 % of control
- T/C (dose: 12.5 mg/kg/injection, schedule: Q04DX004 (ip), vehicle: saline): 100 % of control
- T/C (dose: 25.0 mg/kg/injection, schedule: Q04DX004 (ip), vehicle: saline): 92 % of control

SMILES: CC(C)(O)/C=C/C(=O)[C@](C)(O)[C@H]1[C@H](O)C[C@@]2(C)[C@@H]3CC=C4[C@@H](C=C(O)C(=O)C4(C)C)[C@]3(C)C(=O)C[C@]12C
- T/C (dose: 0.5 mg/kg/injection, schedule: Q04DX004 (ip), vehicle: water): 111 % of control
- T/C (dose: 1.0 mg/kg/injection, schedule: Q04DX004 (ip), vehicle: water): 117 % of control
- T/C (dose: 1.67 mg/kg/injection, schedule: Q04DX004 (ip), vehicle: water): 113 % of control

SMILES: OCCC(N1CCOCC1)C(O)(c1ccccc1)c1ccccc1 (configuration not stated)
- T/C [10]: 103 % of control
- T/C [11]: 106 % of control
- T/C [12]: 107 % of control
- T/C [13]: 100 % of control
- T/C [14]: 93 % of control

SMILES: O=C(O)C1CC(O)CN1 (configuration not stated)
- T/C (dose: 50.0 mg/kg/injection, schedule: Q04DX004 (ip), vehicle: suspension in saline): 110 % of control
- T/C (dose: 100.0 mg/kg/injection, schedule: Q04DX004 (ip), vehicle: suspension in saline): 103 % of control
- T/C (dose: 200.0 mg/kg/injection, schedule: Q04DX004 (ip), vehicle: suspension in saline): 97 % of control
- T/C (dose: 400.0 mg/kg/injection, schedule: Q04DX004 (ip), vehicle: suspension in saline): 102 % of control
- T/C (dose: 800.0 mg/kg/injection, schedule: Q04DX004 (ip), vehicle: suspension in saline): 100 % of control

SMILES: CC(=O)Nc1ccc(Nc2ccc(C(=C3C=CC(=[N+](C)CCC#N)C=C3)c3ccc(N(C)CCC#N)cc3)cc2)cc1
- T/C [15]: 101 % of control
- T/C [16]: 101 % of control
- T/C [1]: 99 % of control
- T/C [2]: 100 % of control
- T/C [3]: 92 % of control
